Laboratory results: US7250429B2, “Aminomethyl-substituted thiazolobenzimidazole compounds” (Astellas Pharma Inc., priority 2002, dated 2007)
Where a name gives a salt, the structure may show the parent alone.

Columns and labels:
[1] = system: L5/L6 spinal nerves-ligated rat; test: L5/L6 spinal nerves-ligated rat, von Frey hair (VFH) test; assay type: in vivo, SD rats; details: 30 mg/kg oral administration; VFH test 30 minutes after administration
Method: 2) L5/L6 Spinal Nerves-Ligated Rat
The test was carried out by modifying a part of a report (PAIN, 50, 355-363, 1992). Using SD rats, left side hip nerves (L5 and L6) were ligated with a silk thread under pentobarbital anesthesia. The following test was carried out during a period of from on the 7th day to the 14th day after the operation.
Each compound was orally administered, and the von Frey hair (VFH) test was carried out 30 minutes thereafter to calculate the pain threshold value against mechanical nocuous stimulus. The measurement was carried out on the left and right hind legs.
The significant difference test was carried out using the Dunnett method on respective left and right legs between the control group and compound-administered group.

[2] = target: T1, mGluR 1 (Rattus norvegicus, UniProt P23385); test: mGluR 1 binding test with tritium-labeled ligand on rat cerebellum P2 membrane fraction; details: about 20 nM [3H]-6-amino-N-cyclohexyl-N,3-dimethylthiazolo[3,2-a]benzimidazole-2-carboxamide
T1 construct: Each rat (Wistar, male, 9 to 12 weeks of age) was decapitated to excise the cerebellum; from tissue; host or cells: rat (Wistar) cerebellum, P2 membrane fraction
Method: (Test Methods) 1. The mGluR 1 Binding Activity
Effect of the compounds of the invention upon mGluR 1 was verified in accordance with the method described in the Patent Reference 3.
(Preparation of Rat Cerebellum P2 Membrane Fraction)
Each rat (Wistar, male, 9 to 12 weeks of age) was decapitated to excise the cerebellum. After weight measurement, this was homogenized in 7 to 10 volumes of 0.32 M sucrose solution. After 15 minutes of centrifugation at 900×g, the supernatant was preserved in a container (in ice). The precipitate was again homogenized in 0.32 M sucrose solution of the same volume of the first time and centrifuged at 900×g for 15 minutes. The supernatant obtained this time was combined with the previously obtained supernatant and centrifuged at 15,000×g for 20 minutes. The precipitate was homogenized in 5 mM Tris-HCl, pH 7.4, and centrifuged at 15,000×g for 15 minutes. This step was repeated again. The precipitate was homogenized in 50 mM Tris-HCl, pH 7.4, and centrifuged at 15,000×g for 15 minutes. The precipitate was homogenized in an appropriate amount of 50 mM Tris-HCl, pH 7.4, subdivided into small portions and then preserved at −80° C.
As the assay buffer, 50 mM Tris-HCl, 2.5 mM CaCl2, pH 7.4, was used. [^3H]-(6-Amino-N-cyclohexyl-N,3-dimethylthiazolo[3,2-a]benzimidazole-2-carboxamide) (specific activity; 81 Ci/mmol; Amersham), a test compound and about 0.1 mg of the rat cerebellum P2 membrane fraction were suspended to a total volume of 100 μl in a 96 well microplate and then incubated at room temperature (about 25° C.) for 45 minutes. Completion of the incubation was carried out by a filtration method using Whatman GF/B filter. Quantity of the radioactivity was measured using a liquid scintillation counter. About 20 nM of [^3H]-6-amino-N-cyclohexyl-N,3-dimethylthiazolo[3,2-a]benzimidazole-2-carboxamide was used in the competitive test, and the specific binding was defined as a portion of the total binding, which was replaced by 10 μM of 6-{[(2-methoxyethyl)amino]methyl}-N-neopentylthiazolo[3,2-a]benzimidazole-2-carboxamide (Patent Reference 3, the compound described in Example 75). Evaluation of the test compound was carried out by calculating the ratio of binding inhibition upon the specific binding.
Determination of protein was carried out using BIO-RAD DC protein assay (BIO-RAD). Bovine serum albumin was used as the standard substance.

[3] = system: STZ-loaded mice; test: Streptozotocin (STZ)-induced diabetes model, tail pinch test; assay type: in vivo, ICR mice; details: at 10 mg/kg
Method: • Thomsen C., Mulvihill E. R., Haldeman B., Pickering D. S., Hampson D. R. and Suzdak P. D., A pharmacological characterization of the mGluR 1 alpha subtype of the metabotropic glutamate receptor expressed in a cloned baby hamster kidney cell line., Brain Res., Aug. 13, 1993, 619(1-2), 22-8 2. Inhibitory Effect Upon Neuropathic Pain 1) Streptozotocin (to be Referred to as STZ Hereinafter)—Induced Diabetes Model
The test was carried out by modifying a part of a report (Pharmacol. Biochem. Behav., 39, 541-544, 1991). At a dose of 200 mg/kg, STZ was intraperitoneally administered to each of ICR mice of 4 weeks of age. A preliminary test of a tail pinch test was carried out in the afternoon of the day 2 weeks after the administration, and only animals showing a reaction latency of 3 seconds or less were submitted to the next day's test. Each compound was loaded by 10 mg/kg of oral administration, and the tail pinch test was carried out after 30 minutes of the administration to calculate a difference from the value of latency measured in the preliminary test.
In this connection, normal mice unloaded with STZ show a reaction latency of 6 to 7 seconds in average by this test. STZ-loaded mice having a reaction latency of 3 seconds or less in which distinct reduction in the pain threshold was observed were used in the test of this time. […]

[4] = system: Salmonella typhimurium TA 98 and TA 100; test: Reverse mutation test using a bacterium (genetic toxicity); assay type: cell-based; details: pre-incubation method, presence and absence of metabolic activation system (S9Mix)
Method: Gene mutation inducing ability of the compounds of the invention was verified by a reverse mutation test which uses a bacterium.
The test was carried out in accordance with the genetic toxicity test guideline of drugs (Iyakushin No. 1604, Nov. 1, 1999) by a pre-incubation method in the presence and absence of a metabolic activation system. However, Salmonella typhimurium TA 98 and TA 100 alone were used as the test strains.
(Reverse Mutation Test Using a Bacterium)
A 0.5 ml portion of 0.1 M sodium phosphate buffer (pH 7.4), 0.1 ml of an overnight-cultured test strain suspension and 0.1 ml of a solution of a substance to be tested were put into a test tube and shaken (60 reciprocation/min) at 37° C. for 20 minutes, and then 2 ml of soft agar kept at about 45° C. was added thereto and the mixture was spread on a minimal glucose agar plate medium (plate) and cultured at 37° C. for about 48 hours. In the case of the metabolic activation test, the same procedure was carried out by adding the same volume of S9Mix instead of the 0.1 M sodium phosphate buffer. […]
The number of colonies formed on the plate after 48 hours of culturing was counted. […]

T1 sequence (P23385 19-1199): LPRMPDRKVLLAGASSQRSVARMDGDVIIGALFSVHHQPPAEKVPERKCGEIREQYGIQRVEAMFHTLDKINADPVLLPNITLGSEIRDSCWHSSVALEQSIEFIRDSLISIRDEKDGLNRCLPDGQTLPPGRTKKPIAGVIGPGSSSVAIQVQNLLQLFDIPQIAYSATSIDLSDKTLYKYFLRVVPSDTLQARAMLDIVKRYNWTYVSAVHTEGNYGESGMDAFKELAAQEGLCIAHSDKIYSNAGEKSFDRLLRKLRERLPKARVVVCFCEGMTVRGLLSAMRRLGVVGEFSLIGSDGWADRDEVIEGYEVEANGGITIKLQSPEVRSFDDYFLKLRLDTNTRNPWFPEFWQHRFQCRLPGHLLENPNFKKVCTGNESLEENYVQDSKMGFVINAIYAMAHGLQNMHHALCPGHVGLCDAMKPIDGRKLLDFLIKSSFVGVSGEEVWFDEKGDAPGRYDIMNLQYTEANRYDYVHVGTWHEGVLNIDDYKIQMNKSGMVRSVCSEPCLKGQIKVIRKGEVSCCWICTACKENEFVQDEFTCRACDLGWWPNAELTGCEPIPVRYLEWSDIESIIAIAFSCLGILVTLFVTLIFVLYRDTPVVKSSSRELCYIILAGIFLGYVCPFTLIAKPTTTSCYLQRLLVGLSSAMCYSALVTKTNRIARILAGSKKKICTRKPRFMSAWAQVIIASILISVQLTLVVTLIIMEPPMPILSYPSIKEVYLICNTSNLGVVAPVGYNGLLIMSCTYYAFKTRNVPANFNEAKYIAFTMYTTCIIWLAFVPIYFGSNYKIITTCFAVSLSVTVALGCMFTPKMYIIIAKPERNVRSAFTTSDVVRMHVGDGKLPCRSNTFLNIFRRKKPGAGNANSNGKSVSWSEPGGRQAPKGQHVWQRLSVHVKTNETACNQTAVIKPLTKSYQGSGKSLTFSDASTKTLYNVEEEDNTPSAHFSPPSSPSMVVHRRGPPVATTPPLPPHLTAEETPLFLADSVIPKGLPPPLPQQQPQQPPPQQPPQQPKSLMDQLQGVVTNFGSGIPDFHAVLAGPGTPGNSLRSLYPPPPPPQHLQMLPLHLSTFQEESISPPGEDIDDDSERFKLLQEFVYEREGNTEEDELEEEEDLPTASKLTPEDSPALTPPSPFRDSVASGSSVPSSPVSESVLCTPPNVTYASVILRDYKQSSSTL

Structure (SMILES) | IC50 [2] [µM] | also measured
CC(C)(C)CNC(=O)c1cn2c(nc3ccc(CNCC4CCOCC4)cc32)s1 [Example 28, N-Neopentyl-6-({[(tetrahydro-2H-pyran-4-yl)methyl]amino}methyl)thiazolo[3,2-a]benzimidazole-2-carboxamide dihydrochloride] | 0.048 | efficacy upon the threshold value reduction in the operated side [1]: showed their efficacy
CC(C)(C)CNC(=O)c1cn2c(nc3ccc(CN[C@@H]4CCOC4)cc32)s1 [Example 23, (R)-N-Neopentyl-6-{[(tetrahydro-3-furyl)amino]methyl}thiazolo[3,2-a]benzimidazole-2-carboxamide dihydrochloride] | 0.03 | 
CN(CC(C)(C)C)C(=O)c1cn2c(nc3ccc(CNC[C@@H]4CCCO4)cc32)s1 [Example 11, N-Methyl-N-neopentyl-6-({[((S)-tetrahydro-2-furfuryl)methyl]amino}methyl)thiazolo[3,2-a]benzimidazole-2-carboxamide Dihydrochloride] | 0.003 | 
CN(CC(C)(C)C)C(=O)c1cn2c(nc3ccc(CNCC4(C)COC4)cc32)s1 [Example 7, N-Methyl-6-({[(3-methyloxetan-3-yl)methyl]amino}methyl)-N-neopentylthiazolo[3,2-a]benzimidazole-2-carboxamide] | 0.009 | 
CN(CC(C)(C)C)C(=O)c1cn2c(nc3ccc(CNC4CCOCC4)cc32)s1 [Example 15, N-Methyl-N-neopentyl-6-{[(tetrahydro-2H-pyran-4-yl)amino]methyl}thiazolo[3,2-a]benzimidazole-2-carboxamide dihydrochloride] | 0.026 | efficacy upon the threshold value reduction in the operated side [1]: showed their efficacy
CC(C)(C)CNC(=O)c1cn2c(nc3ccc(CNC[C@H]4CCCO4)cc32)s1 [Example 24, (R)-N-Neopentyl-6-({[(tetrahydro-2-furyl)methyl]amino}methyl)thiazolo[3,2-a]benzimidazole-2-carboxamide dihydrochloride] | 0.011 | 
CC(C)(C)CNC(=O)c1cn2c(nc3ccc(CNCC4OCCO4)cc32)s1 [Example 26, 6-{[(1,3-Dioxolan-2-ylmethyl)amino]methyl}-N-neopentylthiazolo[3,2-a]benzimidazole-2-carboxamide dihydrochloride] | 0.008 | 
CN(CC(C)(C)C)C(=O)c1cn2c(nc3ccc(CNCC4CCOCC4)cc32)s1 [Example 17, N-Methyl-N-neopentyl-6-({[(tetrahydro-2H-pyran-4-yl)methyl]amino}methyl)thiazolo[3,2-a]benzimidazole-2-carboxamide dihydrochloride] | 0.006 | efficacy upon the threshold value reduction in the operated side [1]: showed their efficacy
CN(CC(C)(C)C)C(=O)c1cn2c(nc3ccc(CNCC4OCCO4)cc32)s1 [Example 12, 6-{[(1,3-Dioxolan-2-ylmethyl)amino]methyl}-N-methyl-N-neopentylthiazolo[3,2-a]benzimidazole-2-carboxamide dihydrochloride] |  | oral activity [3]: effective; gene mutation inducing ability [4]: negative
CN(CC(C)(C)C)C(=O)c1cn2c(nc3ccc(CNC4COC4)cc32)s1 [Example 6, N-Methyl-N-neopentyl-6-[(oxetan-3-ylamino)methyl]thiazolo[3,2-a]benzimidazole-2-carboxamide 1.5 Fumarate] | 0.002 | 

Continued, in another order:

IC50 [2] [µM] | Structure (SMILES) | also measured
0.043 | CN(CC1OCCO1)C(=O)c1cn2c(nc3ccc(CNC4COC4)cc32)s1 [Example 31, N-(1,3-Dioxolan-2-ylmethyl)-N-methyl-6-[(oxetan-3-ylamino)methyl]thiazolo[3,2-a]benzimidazole-2-carboxamide] | 
0.008 | CN(CC1OCCO1)C(=O)c1cn2c(nc3ccc(CNCC4OCCO4)cc32)s1 [Example 37, N-(1,3-Dioxolan-2-ylmethyl)-6-{[(1,3-dioxolan-2-ylmethyl)amino]methyl}-N-methylthiazolo[3,2-a]benzimidazole-2-carboxamide dihydrochloride] | 
0.026 | CN(CC1OCCO1)C(=O)c1cn2c(nc3ccc(CNCC4CCOCC4)cc32)s1 [Example 39, N-(1,3-Dioxolan-2-ylmethyl)-N-methyl-6-({[(tetrahydro-2H-pyran-4-yl)methyl]amino}methyl)thiazolo[3,2-a]benzimidazole-2-carboxamide dihydrochloride] | 
0.037 | CN(CC1OCCO1)C(=O)c1cn2c(nc3ccc(CN[C@@H]4CCOC4)cc32)s1 [Example 34, N-(1,3-Dioxolan-2-ylmethyl)-N-methyl-6-{[(R)-(tetrahydro-3-furyl)amino]methyl}thiazolo[3,2-a]benzimidazole-2-carboxamide dihydrochloride] | 
0.012 | CN(CC1OCCO1)C(=O)c1cn2c(nc3ccc(CNC[C@H]4CCCO4)cc32)s1 [Example 35, N-(1,3-Dioxolan-2-ylmethyl)-N-methyl-6-({[((R)-tetrahydro-2-furyl)methyl]amino}methyl)thiazolo[3,2-a]benzimidazole-2-carboxamide dihydrochloride] | 
